In experiment [1] the test system is MEK1/2-ERK1/2 and AKT-mTOR signaling pathway. The experiment in a line: VEGFR-2 downstream signaling cascades in HUVECs (immunoblot). Type of experiment: cell-based, human. The following applies: activation level rather than total protein level. As to the method: (§1) The experiments were carried out as described previously (Pan et al., 2010). Briefly, the cells (5×10^5 cells/well) seeded on the 6-well plates and incubated with different concentrations (0.5, 1, and 2 μM) of K20E under normal culture condition for 15 min or 24 h to detect the expression levels of the phosphorylated proteins and the total proteins, respectively. The treated cells were harvested and lysed by using PROPREP® protein extraction solution (#17081; iNtRON Biotechnology, Gyeonggi-Do, South Korea). The cell lysates were further centrifuged at 13000×g at 4° C. for 10 min to collect the supernatants for sodium dodecyl sulfate-polyacrylamide gel electrophoresis (SDS-PAGE). Protein concentration was measured by the Bio-Rad protein assay kit (Bio-Rad, Hercules, Calif., USA) according to the manufacturer's instructions. Aliquots containing 30 μg protein were electrophoresed using 10% slab SDS-PAGE gels and then transferred to PVDF membranes (Immobilon-P™; Millipore, Bedford, Mass., USA). […] The luminescence signal was acquired by Fujifilm LAS-4000 system (San Leandro, Calif., USA) and quantified by using MultiGauge software (v3.0; Fujifilm). […] The relative protein expression was calculated according to the values of the control group (treated with 5% or 10% FBS alone) as 100%.
A general note: In western blotting, separated proteins are transferred to a membrane and probed.

In experiment [2] the test system is gelatinases (MMP-2 and MMP-9). In words: Gelatinase protein (immunoblot) and activity (gelatin zymography) in HUVECs. Format: cell-based, human. To be noted: FIG. 6D. As to the method: as §1, with “instructions.” for “instructions. Aliquots containing 30 μg protein were electrophoresed using 10% slab SDS-PAGE gels and then transferred to PVDF membranes (Immobilon-P™; Millipore, Bedford, Mass., USA).”
The experiments were carried out according to the procedure of previous study with minor modification (Chen et al., 2012). […] The intensity of the digested bands was quantified by using Multi Gauge software. […]

As for `COC(=O)/C=C/c1cc(OC(C)=O)c2c(c1)[C@H](C(=O)OC)[C@@H](c1ccc(OC(C)=O)c(OC(C)=O)c1)O2` [K20E], the MEK1/2-ERK1/2 signaling result in experiment [1] (FIG. 6B) is reported as “suppressed”. Besides, in experiment [1] (FIG. 6C), the AKT-mTOR signaling pathway entry is recorded as “suppressed”. Also, in experiment [2] (gelatin zymography), the “activity levels of gelatinases (MMP-2 and MMP-9)” value is “evidently decreased”. The “protein levels of gelatinases (MMP-2 and MMP-9)” value in experiment [2] (immunoblot) is recorded as “evidently decreased”.
